Results from US12421228B2 (Mirati Therapeutics, Inc., priority 2019, dated 2025).

Tests used:
[1] = target: purified human, His-tagged PRC2 complex (Homo sapiens (Human), UniProt O75530); test: Hot Spot HMT assay, inhibition of PRC2 enzymatic activity; assay type: biochemical; details: 10 nM PRC2 complex, 0.05 mg/ml core histone H3, 1 μM 3H-SAM, 1 hr at 30° C.; read-out: IC50, Inhibition of PRC2-mediated Enzymatic Activity
Procedure: Ten-point dose-response curves for compounds of the present invention were determined using a Hot Spot HMT assay (Reaction Biology Corp; see Horiuchi et al., Assay Drug Dev Technol. (2013) 4: 227-236 doi: 10.1089/adt.2012.480). The assay uses purified human, His-tagged PRC2 complex, including N-terminal His-tagged EZH2 enzyme, N-terminal Flag-tagged embryonic ectoderm development protein (EED), N-terminal His-tagged suppressor of zeste 12 (SUZ12), N-terminal His-tagged AEBP2, and N-terminal His-tagged RbAp48. In this assay, the transfer of the tritiated methyl group from radiolabeled S-adenosyl methionine (SAM) to purified core histone protein by EZH2 is quantitated after filtration to determine the activity of the core PRC2 complex in the presence and absence of compound.
Briefly, compounds of the present invention were solubilized in DMSO and a series of 10, three-fold serial dilutions were made for each compound in 15% DMSO. The initial starting concentration for the serial dilutions of each compound was 1.0 μM. Control samples lacking compound, EZH2 enzyme or various reaction components also were prepared and processed in parallel with compound test samples. SAH (S-(5-adenosyl)-L-homocysteine) was used as a positive control for assay validation.
An aliquot of each serial dilution of test compound was added to deep 384 well plate using Acoustic Technology instrument (Echo 550, LabCyte) containing reaction buffer (50 mM Tris-HCl (pH 8)), 0.01% Brij35, 1 mM EDTA, 1 mM DTT, 1 mM PMSF and 1% DMSO), 10 nM purified PRC2 complex and 0.05 mg/ml core histone H3 in a 5 μl volume. The reaction was mixed gently and then pre-incubated for 20 min at 30° C. The enzymatic reaction was initiated by adding 1 μM S-Adenosyl-L-[methyl-^3H]methionine and incubated for 1 hr at 30° C. After 1 hr, the reaction product was detected using a filter binding method and the amount of tritiated H3 core histone was quantitated using a scintillation counter. The IC50 value for each compound was determined from each 10-point dose-response curve using GraphPad Prism software and the results for compounds of present invention, including compounds of Formula (I) and Formula (II) are shown in Table 6. Key: A=<100 nM; B=>100 nM−<250 nM; and C=>250 nM.

[2] = test system: PRC2-mediated histone H3 methylation in Pfeiffer cells (EZH2 A677G); test: Tri-Methyl Histone H3 (Lys 27) sandwich ELISA in Pfeiffer cells; assay type: cell-based; details: Homo sapiens, 96 hours incubation, H3K27me3 ELISA, read-out: IC50 (nM), Inhibition of EZH2-mediated Histone H3 Trimethylation
From the text: The Pfeiffer cell line was established from a […] from a patient having metastatic diffuse large B-cell lymphoma (DLBCL). This cell line expresses a mutant form of the EZH2 enzyme (A677G) that results in enhanced EZH2 activity leading to increased methylation of histone H3 Lys27. Increased trimethylation of histone H3 Lys27 is believed to be implicated in tumorgenesis and poor clinical prognosis in lymphomas (McCabe et al., (2012) Nature 492:108-112).
Inhibition of PRC2-mediated histone H3 methylation by compounds of Formula (I) was measured by ELISA using a Tri-Methyl Histone H3 (Lys 27) Sandwich ELISA Kit (Cell Signaling Tech #7866C) in accordance with the manufacturer's instructions. Briefly, Pfeiffer cells were cultured in RPMI medium supplemented with 10% fetal bovine serum and 1% penicillin and 1% streptomycin in 96 well culture plates at 37° C. to a density of 8000 cells/90 μl/well and the cells were harvested. A series of 3-fold serial dilutions of each test compound of Formula (I) were prepared in RPMI medium and added to the cells at final concentrations ranging from […] to 0.15 nM. The plates were incubated at 37° C. for 96 hours.
After incubation, the cells were pelleted by centrifugation in a pre-cooled 4° C. rotor at 1,100 rpm for 10 min and the supernatant was removed by aspiration. The cell pellet was resuspended in 55 μl of Lysis Buffer (0.4M HCl) and incubated on ice with periodic shaking for 30 minutes. The lysed cells were subjected to centrifugation at 4,200 rpm for 10 min at 4° C. and the supernatant containing acid-soluble proteins was collected and the remainder discarded. The acid-soluble proteins were brought to a neutral pH by the addition of 20 μl of Neutralization Buffer (1 M Sodium phosphate, dibasic (pH 12.5), 2.5 mM DTT and 1 mM PMSF) and the neutralized lysates were analyzed by ELISA.
A 65 μl aliquot of each cell lysate was added to a well of a microwell strip, the microwells were sealed using tape and incubated either at 37° C. for two hours or at 4° C. overnight. After incubation, the tape was removed at the microwells were washed four times using 200 μl of 1× Wash Buffer. To each washed microwell, a 100 μl aliquot of an anti-trimethyl histone H3 Lys27 Detection Antibody solution was added and the microwells were incubated at 37° C. for one hour. The Detection Antibody solution was removed by aspiration and the wells were washed four times each using 200 μl of 1× Wash Buffer.
A 100 μl aliquot of an HRP-linked secondary antibody was added to each well, the wells were sealed with tape and incubated at 37° C. for 30 min. The HRP-linked secondary antibody solution was removed by aspiration and the wells were washed four times using 200 μl of 1× Wash Buffer. A 100 μl aliquot of a TMB substrate was added to each well, the wells were sealed with tape and incubated at 37° C. for 10 min or 25° C. for 30 min. The reaction was stopped by the addition of 100 μl aliquot of a STOP solution and the plate was shaken briefly. The degree of histone H3 trimethylation was determined using a spectrophotometric readout by measuring the absorbance at 450 nm and then calculating the amount of trimethylated histone H3. A=≤100 nM; B=>100 nM−≤500 nM; C=>500 nM and N.D.=not determined.

[3] = test system: Karpas 422 cells (EZH2 Y641N); test: Karpas 422 cell viability (Cell Titre Glo); assay type: cell-based; details: Homo sapiens, CTG viability, Day 4, Day 7 or Day 11 (time point not given), read-out: IC50 (nM), Inhibiting Proliferation of Cells Expressing an Activating Mutant Form of EZH2
Procedure: Karpas 422 cell line is a human B cell non-Hodgkin's lymphoma cell line established from a patient having DLBCL. This EZH2 heterozygotic cell line expresses a mutant form of EZH2 enzyme (Y641N) that increases histone H3 methylation and this mutation has been implicated in the tumorgenesis of lymphomas, such as DLBCL.
Karpas 422 cells (PHE cat no., 06101702) were cultured in RPMI medium supplemented with 20% fetal bovine serum and 1% penicillin/1% streptomycin and plated at a density of 1000 cells/90 μl/well in 96 well white assay plates. A dose response curve for compounds of the present invention was determined by adding a 10 μl aliquot of stock solutions of varying concentrations of compounds to the same medium in each well, over a concentration range of 10 μM using 3-fold dilutions to a final concentration of 1.5 nM. The plates were incubated at 37° C. for predetermined time periods, Day 4, Day 7, or Day 11, and the viability of the cells was measured using a CTG assay kit (Cell Titre Glo; Promega cat. no G7573) on Day 4 and Day 7 in accordance with the manufacturer's instructions.
For the viability assay for the Day 11 plates, the plates were subjected to centrifugation at 1100 rpm for five minutes on Day 7 and the supernatant was removed by aspiration. The cells were resuspended in 90 μl aliquot of the appropriate growth medium lacking the compound followed by addition of 10 μl of a 10× stock of the same compound at the same concentration. The viability of the Day 11 cells was measured using the CTG assay kit described above in accordance with the manufacturer's instructions. The IC50 values for each compound at each predetermined time point were calculated using Graph pad PRISM software and the results are shown in Table 8. A=≤250 nM; B=[…]−≤500 nM; C=>500 nM and N.D.=not determined.

Sequence of purified human, His-tagged PRC2 complex (Q15910 whole entry): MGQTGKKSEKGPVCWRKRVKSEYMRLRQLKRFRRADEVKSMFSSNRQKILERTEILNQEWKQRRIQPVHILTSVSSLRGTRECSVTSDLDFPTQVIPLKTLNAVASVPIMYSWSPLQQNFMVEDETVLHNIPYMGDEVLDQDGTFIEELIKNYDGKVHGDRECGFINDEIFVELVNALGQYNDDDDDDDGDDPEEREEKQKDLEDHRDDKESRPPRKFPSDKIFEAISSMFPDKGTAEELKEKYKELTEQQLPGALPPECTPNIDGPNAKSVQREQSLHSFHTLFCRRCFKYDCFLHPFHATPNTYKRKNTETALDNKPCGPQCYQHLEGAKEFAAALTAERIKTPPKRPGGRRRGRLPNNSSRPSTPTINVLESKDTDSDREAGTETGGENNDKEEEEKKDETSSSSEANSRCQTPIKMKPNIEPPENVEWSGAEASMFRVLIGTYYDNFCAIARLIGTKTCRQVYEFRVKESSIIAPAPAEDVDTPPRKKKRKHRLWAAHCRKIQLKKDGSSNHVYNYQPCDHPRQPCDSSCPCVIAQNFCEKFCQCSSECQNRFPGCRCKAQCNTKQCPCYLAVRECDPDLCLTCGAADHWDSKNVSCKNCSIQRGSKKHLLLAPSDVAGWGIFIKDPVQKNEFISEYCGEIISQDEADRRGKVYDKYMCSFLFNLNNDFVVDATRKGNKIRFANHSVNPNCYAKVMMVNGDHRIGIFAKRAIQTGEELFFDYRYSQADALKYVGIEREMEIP
Sequence of purified human, His-tagged PRC2 complex (O75530 whole entry): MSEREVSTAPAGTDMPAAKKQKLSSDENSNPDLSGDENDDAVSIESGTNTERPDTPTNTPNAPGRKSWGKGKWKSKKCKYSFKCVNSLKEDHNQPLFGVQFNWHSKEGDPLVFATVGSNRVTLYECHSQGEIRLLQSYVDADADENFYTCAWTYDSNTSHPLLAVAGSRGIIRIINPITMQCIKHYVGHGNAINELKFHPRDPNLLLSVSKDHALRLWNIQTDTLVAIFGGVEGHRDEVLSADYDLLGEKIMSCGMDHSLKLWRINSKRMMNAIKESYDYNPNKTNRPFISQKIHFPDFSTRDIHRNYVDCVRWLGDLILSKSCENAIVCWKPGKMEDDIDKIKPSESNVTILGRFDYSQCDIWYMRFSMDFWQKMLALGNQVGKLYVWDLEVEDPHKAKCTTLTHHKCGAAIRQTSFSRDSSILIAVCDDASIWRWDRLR
Sequence of purified human, His-tagged PRC2 complex (Q15022 whole entry partner): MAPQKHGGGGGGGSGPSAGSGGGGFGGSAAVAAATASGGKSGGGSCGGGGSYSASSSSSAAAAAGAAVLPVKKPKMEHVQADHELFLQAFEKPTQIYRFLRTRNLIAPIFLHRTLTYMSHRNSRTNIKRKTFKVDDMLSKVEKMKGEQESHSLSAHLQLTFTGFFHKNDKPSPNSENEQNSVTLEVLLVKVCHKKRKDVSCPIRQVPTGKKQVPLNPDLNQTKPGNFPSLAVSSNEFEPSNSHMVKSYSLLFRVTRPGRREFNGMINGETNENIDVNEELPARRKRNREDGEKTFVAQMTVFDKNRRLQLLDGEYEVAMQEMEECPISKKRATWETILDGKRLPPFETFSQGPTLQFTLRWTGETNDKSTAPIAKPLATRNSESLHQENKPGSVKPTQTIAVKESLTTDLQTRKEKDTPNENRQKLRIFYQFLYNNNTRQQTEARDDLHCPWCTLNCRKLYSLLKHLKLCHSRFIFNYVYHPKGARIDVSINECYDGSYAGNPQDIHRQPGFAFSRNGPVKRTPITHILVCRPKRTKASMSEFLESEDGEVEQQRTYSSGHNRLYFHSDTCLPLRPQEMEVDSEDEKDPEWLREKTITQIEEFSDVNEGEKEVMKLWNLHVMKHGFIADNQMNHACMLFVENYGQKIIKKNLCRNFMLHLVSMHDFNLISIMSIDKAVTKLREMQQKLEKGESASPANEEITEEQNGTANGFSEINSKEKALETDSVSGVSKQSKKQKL
Sequence of purified human, His-tagged PRC2 complex (Q6ZN18 whole entry partner): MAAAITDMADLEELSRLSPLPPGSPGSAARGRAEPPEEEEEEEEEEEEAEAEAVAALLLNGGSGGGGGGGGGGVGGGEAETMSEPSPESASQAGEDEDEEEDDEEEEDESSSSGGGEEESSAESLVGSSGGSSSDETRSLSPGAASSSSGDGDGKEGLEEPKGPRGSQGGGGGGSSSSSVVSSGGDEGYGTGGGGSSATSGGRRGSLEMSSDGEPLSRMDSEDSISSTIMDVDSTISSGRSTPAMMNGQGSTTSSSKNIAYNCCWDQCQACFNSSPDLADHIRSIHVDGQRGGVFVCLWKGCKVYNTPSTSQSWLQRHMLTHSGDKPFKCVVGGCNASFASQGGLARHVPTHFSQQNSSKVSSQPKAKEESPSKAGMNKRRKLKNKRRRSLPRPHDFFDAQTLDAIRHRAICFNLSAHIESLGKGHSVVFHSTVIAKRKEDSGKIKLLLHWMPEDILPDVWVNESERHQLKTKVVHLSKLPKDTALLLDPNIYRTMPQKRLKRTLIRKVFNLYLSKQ
Sequence of purified human, His-tagged PRC2 complex (Q09028 whole entry partner): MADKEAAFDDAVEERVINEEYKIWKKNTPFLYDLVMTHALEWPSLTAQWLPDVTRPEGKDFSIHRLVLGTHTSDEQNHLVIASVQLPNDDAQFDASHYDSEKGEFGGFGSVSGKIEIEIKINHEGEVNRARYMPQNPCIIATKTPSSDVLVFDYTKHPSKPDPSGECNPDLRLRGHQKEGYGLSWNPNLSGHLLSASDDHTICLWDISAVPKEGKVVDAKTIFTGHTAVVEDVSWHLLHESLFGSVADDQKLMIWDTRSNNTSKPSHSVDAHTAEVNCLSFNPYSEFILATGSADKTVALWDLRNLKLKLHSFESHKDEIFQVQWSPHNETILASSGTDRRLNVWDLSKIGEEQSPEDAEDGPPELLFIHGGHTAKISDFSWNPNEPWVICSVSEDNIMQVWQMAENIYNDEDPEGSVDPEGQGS

Row | Compound | IC50 [1] | IC50 [2] | IC50 [3]
1 | CN(C)C(=O)c1cc(-c2cnc(NCc3c(F)ccc4c3CCO4)c3c[nH]c(=O)cc23)n(C)n1 [Example 47, 5-(1-(((5-fluoro-2,3-dihydrobenzofuran-4-yl)methyl)amino)-6-oxo-6,7-dihydro-2,7-naphthyridin-4-yl)-N,N,1-trimethyl-1H-pyrazole-3-carboxamide] | < 100 nM | 100 to 500 nM | ≤ 250 nM
2 | Cc1cc(-c2cnc(NCc3c(F)ccc4c3CCO4)c3cnc(N(C)C)cc23)n(C)n1 [Example 49, 4-(1,3-dimethyl-1H-pyrazol-5-yl)-N^1-((5-fluoro-2,3-dihydrobenzofuran-4-yl)methyl)-N^6,N^6-dimethyl-2,7-naphthyridine-1,6-diamine] | 100 to 250 nM | > 500 nM | > 500 nM
3 | CN(C)S(=O)(=O)c1ccc(-c2cnc(NCc3c(F)ccc4c3CCO4)c3cnncc23)cc1 [Example 8] | < 100 nM | ≤ 100 nM | ≤ 250 nM
4 | CN(C)S(=O)(=O)c1ccc(-c2cnc(NCc3c(F)ccc4c3CCO4)c3cnncc23)cn1 [Example 10] | < 100 nM | ≤ 100 nM | ≤ 250 nM
5 | Cc1cc(-c2cnc(NCc3c(F)ccc4c3CCO4)c3cnc(OC(C)C)cc23)n(C)n1 [Example 43] | > 250 nM | > 500 nM | > 500 nM
6 | Cc1cc(-c2cnc(NCc3c(F)ccc4c3CCO4)c3cccnc23)n(C)n1 [Example 51, 8-(1,3-dimethyl-1H-pyrazol-5-yl)-N-((5-fluoro-2,3-dihydrobenzofuran-4-yl)methyl)-1,6-naphthyridin-5-amine] | > 250 nM | 100 to 500 nM | ≤ 250 nM
7 | COc1cc2c(-c3cc(C)nn3C)cnc(NCc3c(F)ccc4c3CCO4)c2cn1 [Example 34, 4-(1,3-dimethyl-1H-pyrazol-5-yl)-N-((5-fluoro-2,3-dihydrobenzofuran-4-yl)methyl)-6-methoxy-2,7-naphthyridin-1-amine] | 100 to 250 nM | > 500 nM | > 500 nM
8 | Cn1nc(C#N)cc1-c1cnc(NCc2c(F)ccc3c2CCO3)c2c[nH]c(=O)cc12 [Example 48] | < 100 nM | 100 to 500 nM | ≤ 250 nM
9 | Cc1cc(S(C)(=O)=O)ccc1-c1cnc(NCc2c(F)ccc3c2CCO3)c2cnccc12 [Example 31] | 100 to 250 nM | > 500 nM | > 500 nM
10 | Cc1c(-c2cnc(NCc3c(F)ccc4c3CCO4)c3cnncc23)ccc(CN(C)C)c1F [Example 5] | > 250 nM | ≤ 100 nM | ≤ 250 nM
11 | Cc1cc(CN(C)C)ccc1-c1cnc(NCc2c(F)ccc3c2CCO3)c2cncnc12 [Example 24] | < 100 nM | ≤ 100 nM | ≤ 250 nM
12 | Cc1cc(-c2cnc(NCc3c(F)ccc4c3CCO4)c3cc[nH]c(=O)c23)n(C)n1 [Example 55, 8-(1,3-dimethyl-1H-pyrazol-5-yl)-5-(((5-fluoro-2,3-dihydrobenzofuran-4-yl)methyl)amino)-2,6-naphthyridin-1(2H)-one] | > 250 nM | > 500 nM | ≤ 250 nM
13 | CN(C)CCn1nccc1-c1cnc(NCc2c(F)ccc3c2CCO3)c2cnncc12 [Example 18, 8-(1-(2-(dimethylamino)ethyl)-1H-pyrazol-5-yl)-N-((5-fluoro-2,3-dihydrobenzofuran-4-yl)methyl)pyrido[3,4-d]pyridazin-5-amine] | > 250 nM | 100 to 500 nM | ≤ 250 nM
14 | COc1ncc2c(NCc3c(F)ccc4c3CCO4)ncc(-c3cc(C)nn3C)c2n1 [Example 28, 8-(1,3-dimethyl-1H-pyrazol-5-yl)-N-((5-fluoro-2,3-dihydrobenzofuran-4-yl)methyl)-2-methoxypyrido[4,3-d]pyrimidin-5-amine] | < 100 nM | 100 to 500 nM | ≤ 250 nM
15 | CN(C)Cc1ccc(-c2cnc(NCc3cccc4c3CCO4)c3cncnc23)cc1 [Example 25] | > 250 nM | 100 to 500 nM | ≤ 250 nM
16 | COCCOc1cc2c(-c3cc(C)nn3C)cnc(NCc3c(F)ccc4c3CCO4)c2cn1 [Example 45] | 100 to 250 nM | 100 to 500 nM | ≤ 250 nM
17 | Cc1cc(CN(C)C)ccc1-c1cnc(NCc2c(F)ccc3c2CCO3)c2cnncc12 [Example 6] | < 100 nM | ≤ 100 nM | ≤ 250 nM
18 | Cc1ncccc1-c1cnc(NCc2c(F)ccc3c2CCO3)c2cnncc12 [Example 11] | < 100 nM | ≤ 100 nM | ≤ 250 nM
19 | CN(C)C(=O)c1ccc(-c2cnc(NCc3c(F)ccc4c3CCO4)c3cnncc23)cc1 [Example 9] | 100 to 250 nM | ≤ 100 nM | ≤ 250 nM
20 | Cc1cc(C(=O)N(C)C)ncc1-c1cnc(NCc2c(F)ccc3c2CCO3)c2cnncc12 [Example 4] | 100 to 250 nM | ≤ 100 nM | ≤ 250 nM
